Reference: PMC10113271, “Rational peptide design for inhibition of the KIX–MLL interaction” (Scientific Reports, 2023)
Where two headings read alike, the source gives them in different places. Where a SMILES comes first, the peptide text is derived from it. Where no end group is shown, it is not given here.

How the values were obtained:
[1] = molecular target: T1, KIX (Mus musculus, UniProt P45481); assay: KIX binding by isothermal titration calorimetry (ITC); settings: 30 °C; for N (stoichiometry of binding): pH 7.0, mean ± standard error of triplicate or more; for − TΔS: entropy term upon KIX binding, pH 7.0, ΔS=(ΔH-ΔG)/T, mean ± standard error of triplicate or more
T1 construct: The DNA fragment of KIX (residues 586–672 of mouse CBP); 6xHis-tag with thrombin cleavage site (N); made in house; host or cells: E. coli BL21(DE3)pLysS
Protocol: For the expression of MLL TAD, E. coli BL21(DE3) competent cells were transformed with the plasmid and cultivated at 37 °C in 2 × YT liquid medium supplemented with ampicillin. When an optical density at 600 nm (OD600) of the cell culture reached 0.7–0.8, 1 mM isopropyl β-D-1-thiogalactopyranoside was added to induce protein expression. After 4 h of cultivation, the cells were harvested by centrifugation. The E. coli cell pellet was suspended with buffer HP (50 mM sodium phosphate [pH 7.4], 300 mM NaCl, 10 mM imidazole, and 6 M guanidine hydrochloride). The sonicated lysate was centrifuged at 4 °C, and the supernatant was filtered using a membrane filter and applied to a gravity column (50 mL) containing 5 mL of nickel-nitrilotriacetic acid (Ni–NTA) resin (Qiagen, Hilden, Germany). The column was washed with buffer HP and buffer AP (50 mM sodium phosphate [pH 7.4], 300 mM NaCl, and 10 mM imidazole) to remove impurities. To elute His-tag–GB1–MLL TAD for ITC and SPR measurements, 40 mL of buffer EP (50 mM sodium phosphate [pH 7.4], 300 mM NaCl, and 250 mM imidazole) was added to the column. […] Thus, His-tag–GB1–MLL TAD was used in the ITC measurements, with the exception of the four mutants (I2849L, D2851L, K2855R, and T2857I). To obtain the MLL TAD peptide without His-tag–GB1 for CD measurements, we washed the column, to which the His-tag–GB1–MLL TAD was attached, with buffer TP (50 mM sodium phosphate [pH 7.4] and 300 mM NaCl), added 150 units of thrombin to the column for digestion of the His-tag–GB1, and eluted the MLL TAD peptide with buffer TP. After Ni–NTA column purification, anion exchange chromatography was performed to further purify the aforementioned four mutants without His-tag–GB1 using the AKTAprime plus chromatography system (Cytiva, Marlborough, MA, USA; 10 mM sodium phosphate [pH 6.0] and 0–1 M NaCl). Due to the fact that the CD spectra of the four mutants were unchanged before and after the anion exchange chromatography, we omitted this procedure for other mutants.
Expression and purification of the KIX protein was performed in the same way as MLL, except that E. coli BL21(DE3)pLysS competent cells and 2 × YT liquid medium with ampicillin and chloramphenicol were used. After Ni–NTA column purification, gel filtration chromatography was performed using a Superdex 200 pg column (Cytiva) and the ITC buffer (20 mM Tris–acetate [pH 7.0] and 50 mM NaCl).
ITC measurements were performed using MicroCal iTC200 (Malvern Panalytical Ltd., Malvern, United Kingdom) at 30 °C. Samples were sufficiently dialyzed with the ITC buffer before measurements. The 600 μM MLL solution was titrated into the cell containing 45 µM KIX. The data were analyzed using the Origin 7 software (OriginLab Corp., Northampton, MA, USA; https://www.originlab.com) to obtain the Kd (M), ΔH (kcal/mol), and stoichiometry of binding, N. The ΔG (kcal/mol) and ΔS (kcal/mol/K) were obtained as follows:2 ΔG=-RTln1/Kd 3 ΔS=ΔH-ΔG/T where R is the gas constant, and T is the temperature.

[2] = system: KIX–MLL interaction; settings: cited from earlier work
Protocol: Previous studies have reported several inhibitors that bind the MLL site of KIX, including isoxazolidine derivatives, which are small molecule compounds that mimic the function of the TADs of transcriptional activators, and natural products such as sekikaic acid and lobaric acid[21],[22]. […] However, the EC50 and IC50 values of these small molecule inhibitors are 10- to 100-fold larger than the Kd for the KIX–MLL interaction (2.02 ± 0.04 μM).

[3] = inhibition of the KIX–MLL interaction

T1 sequence (P45481 586-672): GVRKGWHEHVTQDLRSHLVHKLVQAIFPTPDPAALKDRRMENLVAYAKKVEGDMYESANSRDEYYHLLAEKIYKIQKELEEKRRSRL

CC[C@H](C)[C@H](NC(=O)[C@H](CC(=O)O)NC(=O)[C@H](CO)NC(=O)[C@@H]1CCCN1C(=O)[C@H](CC(C)C)NC(=O)[C@@H](NC(=O)[C@H](CC(N)=O)NC(=O)CN)[C@@H](C)CC)C(=O)N[C@@H](CCSC)C(=O)N[C@@H](CC(C)C)C(=O)N[C@@H](Cc1ccccc1)C(=O)N[C@H](C(=O)N[C@@H](CC(C)C)C(=O)N[C@@H](CCCCN)C(=O)N[C@@H](CC(N)=O)C(=O)N[C@H](C(=O)N1CCC[C@H]1C(=O)N[C@@H](CO)C(=O)N[C@@H](CCSC)C(=O)N[C@@H](CCC(N)=O)C(=O)N[C@@H](C)C(=O)N[C@@H](CC(C)C)C(=O)NCC(=O)N[C@@H](CCC(=O)O)C(=O)N[C@@H](CO)C(=O)N1CCC[C@H]1C(=O)N[C@@H](CCC(=O)O)C(=O)N[C@@H](CO)C(=O)N[C@@H](Cc1ccc(O)cc1)C(=O)O)[C@@H](C)O)C(C)C [D2851L] (H-GNILPSDIMLFVLKNTPSMQALGESPESY-OH; N-terminus and C-terminus assumed)
N (stoichiometry of binding) [1]: 1.020 ± 0.006 | − TΔS [1]: 1.4 ± 0.4 kcal/mol

CC[C@H](C)[C@H](NC(=O)[C@H](CC(N)=O)NC(=O)CN)C(=O)N[C@@H](CC(C)C)C(=O)N1CCC[C@H]1C(=O)N[C@@H](CO)C(=O)N[C@@H](CC(=O)O)C(=O)N[C@@H](CC(C)C)C(=O)N[C@@H](CCSC)C(=O)N[C@@H](CC(=O)O)C(=O)N[C@@H](Cc1ccccc1)C(=O)N[C@H](C(=O)N[C@@H](CC(C)C)C(=O)N[C@@H](CCCCN)C(=O)N[C@@H](CC(N)=O)C(=O)N[C@H](C(=O)N1CCC[C@H]1C(=O)N[C@@H](CO)C(=O)N[C@@H](CCSC)C(=O)N[C@@H](CCC(N)=O)C(=O)N[C@@H](C)C(=O)N[C@@H](CC(C)C)C(=O)NCC(=O)N[C@@H](CCC(=O)O)C(=O)N[C@@H](CO)C(=O)N1CCC[C@H]1C(=O)N[C@@H](CCC(=O)O)C(=O)N[C@@H](CO)C(=O)N[C@@H](Cc1ccc(O)cc1)C(=O)O)[C@@H](C)O)C(C)C [I2849L] (H-GNILPSDLMDFVLKNTPSMQALGESPESY-OH; N-terminus and C-terminus assumed)
N (stoichiometry of binding) [1]: 0.947 ± 0.008 | − TΔS [1]: 4.6 ± 0.2 kcal/mol

CC[C@H](C)[C@H](NC(=O)[C@H](CC(=O)O)NC(=O)[C@H](CO)NC(=O)[C@@H]1CCCN1C(=O)[C@H](CC(C)C)NC(=O)[C@@H](NC(=O)[C@H](CC(N)=O)NC(=O)CN)[C@@H](C)CC)C(=O)N[C@@H](CCSC)C(=O)N[C@@H](CC(=O)O)C(=O)N[C@@H](Cc1ccccc1)C(=O)N[C@H](C(=O)N[C@@H](CC(C)C)C(=O)N[C@@H](CCCNC(=N)N)C(=O)N[C@@H](CC(N)=O)C(=O)N[C@H](C(=O)N1CCC[C@H]1C(=O)N[C@@H](CO)C(=O)N[C@@H](CCSC)C(=O)N[C@@H](CCC(N)=O)C(=O)N[C@@H](C)C(=O)N[C@@H](CC(C)C)C(=O)NCC(=O)N[C@@H](CCC(=O)O)C(=O)N[C@@H](CO)C(=O)N1CCC[C@H]1C(=O)N[C@@H](CCC(=O)O)C(=O)N[C@@H](CO)C(=O)N[C@@H](Cc1ccc(O)cc1)C(=O)O)[C@@H](C)O)C(C)C [K2855R] (H-GNILPSDIMDFVLRNTPSMQALGESPESY-OH; N-terminus and C-terminus assumed)
N (stoichiometry of binding) [1]: 0.94 ± 0.02 | − TΔS [1]: 5.7 ± 0.4 kcal/mol

O=C(Nc1ccc(Cl)cc1)c1cc2ccccc2cc1OP(=O)(O)O [KG-501]
IC50 ([2]; small molecule inhibitor of the KIX–MLL interaction): 200 ± 10 µM

CC[C@H](C)[C@H](NC(=O)[C@H](CC(=O)O)NC(=O)[C@H](CO)NC(=O)[C@@H]1CCCN1C(=O)[C@H](CC(C)C)NC(=O)[C@@H](NC(=O)[C@H](CC(N)=O)NC(=O)CN)[C@@H](C)CC)C(=O)N[C@@H](CCSC)C(=O)N[C@@H](CC(=O)O)C(=O)N[C@@H](Cc1ccccc1)C(=O)N[C@H](C(=O)N[C@@H](CC(C)C)C(=O)N[C@@H](CCCCN)C(=O)N[C@@H](CC(N)=O)C(=O)N[C@H](C(=O)N1CCC[C@H]1C(=O)N[C@@H](CO)C(=O)N[C@@H](CCSC)C(=O)N[C@@H](CCC(N)=O)C(=O)N[C@@H](C)C(=O)N[C@@H](CC(C)C)C(=O)NCC(=O)N[C@@H](CCC(=O)O)C(=O)N[C@@H](CO)C(=O)N1CCC[C@H]1C(=O)N[C@@H](CCC(=O)O)C(=O)N[C@@H](CO)C(=O)N[C@@H](Cc1ccc(O)cc1)C(=O)O)[C@@H](C)CC)C(C)C [T2857I] (H-GNILPSDIMDFVLKNIPSMQALGESPESY-OH; N-terminus and C-terminus assumed)
N (stoichiometry of binding) [1]: 1.043 ± 0.003 | − TΔS [1]: 2.21 ± 0.08 kcal/mol

CCCCCc1c2c(cc(O)c1C(=O)O)OC(=O)c1c(cc(OC)cc1C(=O)CCCC)O2 [lobaric acid]
IC50 [2, 3]: 17 µM

CCCc1cc(OC)cc(O)c1C(=O)Oc1c(OC)cc(CCC)c(C(=O)O)c1O [sekikaic acid]
IC50 [2, 3]: 34 µM

K2855R / T2857L: K2855R/T2857L double mutant of the MLL TAD peptide ({His6-GB1}-GNILPSDIMDFVLRNLPSMQALGESPESY)
− TΔS [1]: 1.5 ± 0.2 kcal/mol

K2855R / T2857W: K2855R/T2857W double mutant of the MLL TAD peptide ({His6-GB1}-GNILPSDIMDFVLRNWPSMQALGESPESY)
− TΔS [1]: 3.86 ± 0.05 kcal/mol

T2857A: T2857A mutant of the MLL TAD peptide (GNILPSDIMDFVLKNAPSMQALGESPESY; left off: His6, N-terminal, cleaved | GB1 (B1 domain of Streptococcal protein G), N-terminal, cleaved)
− TΔS [1]: 4.0 ± 0.2 kcal/mol

T2857F: T2857F mutant of the MLL TAD peptide (GNILPSDIMDFVLKNFPSMQALGESPESY; left off: His6, N-terminal, cleaved | GB1 (B1 domain of Streptococcal protein G), N-terminal, cleaved)
− TΔS [1]: 3.2 ± 0.3 kcal/mol

T2857K: T2857K mutant of the MLL TAD peptide ({His6-GB1}-GNILPSDIMDFVLKNKPSMQALGESPESY)
− TΔS [1]: 4.4 ± 0.2 kcal/mol

T2857L: T2857L mutant of the MLL TAD peptide ({His6-GB1}-GNILPSDIMDFVLKNLPSMQALGESPESY)
− TΔS [1]: 2.6 ± 0.1 kcal/mol

T2857R: T2857R mutant of the MLL TAD peptide ({His6-GB1}-GNILPSDIMDFVLKNRPSMQALGESPESY)
− TΔS [1]: 4.9 ± 0.3 kcal/mol

T2857W: T2857W mutant of the MLL TAD peptide, highest KIX affinity ({His6-GB1}-GNILPSDIMDFVLKNWPSMQALGESPESY)
− TΔS [1]: 4.4 ± 0.1 kcal/mol

T2857Y: T2857Y mutant of the MLL TAD peptide ({His6-GB1}-GNILPSDIMDFVLKNYPSMQALGESPESY)
− TΔS [1]: 4.5 ± 0.2 kcal/mol
